Test results: patent US20250092395A1, “A GLUN2D INHIBITOR FOR USE IN THE TREATMENT OR RELAPSE PREVENTION OF A DEPRESSIVE EPISODE” (priority 2022, published 2025)
Entries after “also recorded” stand apart in the source; their conditions may differ. Structures can show the parent of a compound that is named as a salt.

What was measured:
[1] = tested on: mice subjected to the chronic despair model (CDM); assay: Chronic despair model (CDM) swim test, immobility time; format: in vivo; conditions: CDM mice, test day
Procedure: Induction phase: Mice were forced to swim in a glass cylinder (0 26 cm, 60 cm high) filled to 25 cm with 25° C. warm water for 10 min on 5 consecutive days. After the swimming, the animals were kept in their cages for two days before treatment and experiment readout was performed. The immobility time was measured in each session.
(§1) Behavioral Readout: After the treatment intervention, animals were either tested in an additional swim session (test day) to measure immobility time or tested in the InteliCage using the Nose-pokes sucrose preference test. For the assessment of the immobility time, mice were videotaped and two independent raters who were blinded to the experimental group analyzed the videos. Immobility time was defined as the cumulative time that the animals spend stationary with only enough movements of the tails or the forepaws to keep the head above the water surface. No distance is actively travelled except for passive floating, no directed movement of the front paws observed and the body of the animal mostly oriented parallel to the walls of the cylinder.

CDM mice = assay: Nose-poke sucrose preference test in CDM mice; format: in vivo; conditions: CDM mice, POST1 and POST2 nights
Source text: as §1
The IntelliCage system (TSE Systems) allows simultaneous analysis of spontaneous and exploratory behavior, activity pattern, and drinking preference of up to 16 group-housed mice implanted with radio-frequency identification (RFID) transponders. The unit consists of an open common space with 4 red shelters in the center and 4 recording corners. Mice have free access to food in the middle of the IntelliCage, water is available in the corners behind remote-controlled guillotine doors. Each corner is equipped with 2 drinking bottles and permits the visit of only one mouse at the same time. The scored parameters—the nosepokes toward the doors and the licks on the bottles—were monitored by a PC-based tracking software (IntelliCage Plus, TSE Systems). Initially, the mice were allowed to adapt to the IntelliCage for at least 7 days with water available ad libitum in all corners. Then for 3 days the animals were habituated to the sucrose taste: in each corner one of the bottles was filled with 1% sucrose solution and the other one with water. Both doors in the corner were open allowing free choice between the bottles. Next, a nosepoke adaptation period was carried out, where all doors were closed and the mice had to perform a nosepoke to open them. The opened door closes automatically after 5 s of drinking. In all tasks involving sucrose-filled bottles, the positions of the bottles were exchanged every 24 h. The Nosepoke SPT protocol was used (see Alboni et al.) for measurement of sucrose preference with gradually increasing effort (number of nosepokes) to reach the sucrose bottles for a short period of time (12 h). In this paradigm each door opens in response to a nosepoke and closes after 5 s licking. The number of nosepokes needed to open a door to a side with a sucrose containing bottle gradually increases (1, 2, 3, 4, 5, 6, 8, 10, 12, 16, 20, 24) after every 8 sucrose licking sessions. For each bottle the number of licks was recorded and the averaged sucrose preference was calculated as percentage of the total number of licks.

[2] = tested on: CA3-CA1 synapse, CA1 pyramidal neurons in hippocampal brain slices; assay: LTP/LTD protocols and wash-in in brain slices of unstressed mice, substance in bathing solution; format: cell-based; conditions: for LTP inducibility, associative LTP protocol (aLTP): bath with picrotoxin, R,S-ketamine 10 μM, S-ketamine 5 μM
[3] = Side effects in in vivo experiments; parameters: species or system mice
[4] = tested on: SOM-dependent feedback loop, CA1 PCs; assay: Feedback loop-activating protocol (FLAP) in CA1 PCs; format: cell-based, mice
[5] = target: recombinant GluN2D-containing receptors (Rattus norvegicus, UniProt Q62645); conditions: recombinant GluN2D-containing receptors expressed in mammalian cells; cited from earlier work
[6] = unstressed mice, NAB-14 in bathing solution

Sequence of recombinant GluN2D-containing receptors (Q62645 28-1323, other chains not shown): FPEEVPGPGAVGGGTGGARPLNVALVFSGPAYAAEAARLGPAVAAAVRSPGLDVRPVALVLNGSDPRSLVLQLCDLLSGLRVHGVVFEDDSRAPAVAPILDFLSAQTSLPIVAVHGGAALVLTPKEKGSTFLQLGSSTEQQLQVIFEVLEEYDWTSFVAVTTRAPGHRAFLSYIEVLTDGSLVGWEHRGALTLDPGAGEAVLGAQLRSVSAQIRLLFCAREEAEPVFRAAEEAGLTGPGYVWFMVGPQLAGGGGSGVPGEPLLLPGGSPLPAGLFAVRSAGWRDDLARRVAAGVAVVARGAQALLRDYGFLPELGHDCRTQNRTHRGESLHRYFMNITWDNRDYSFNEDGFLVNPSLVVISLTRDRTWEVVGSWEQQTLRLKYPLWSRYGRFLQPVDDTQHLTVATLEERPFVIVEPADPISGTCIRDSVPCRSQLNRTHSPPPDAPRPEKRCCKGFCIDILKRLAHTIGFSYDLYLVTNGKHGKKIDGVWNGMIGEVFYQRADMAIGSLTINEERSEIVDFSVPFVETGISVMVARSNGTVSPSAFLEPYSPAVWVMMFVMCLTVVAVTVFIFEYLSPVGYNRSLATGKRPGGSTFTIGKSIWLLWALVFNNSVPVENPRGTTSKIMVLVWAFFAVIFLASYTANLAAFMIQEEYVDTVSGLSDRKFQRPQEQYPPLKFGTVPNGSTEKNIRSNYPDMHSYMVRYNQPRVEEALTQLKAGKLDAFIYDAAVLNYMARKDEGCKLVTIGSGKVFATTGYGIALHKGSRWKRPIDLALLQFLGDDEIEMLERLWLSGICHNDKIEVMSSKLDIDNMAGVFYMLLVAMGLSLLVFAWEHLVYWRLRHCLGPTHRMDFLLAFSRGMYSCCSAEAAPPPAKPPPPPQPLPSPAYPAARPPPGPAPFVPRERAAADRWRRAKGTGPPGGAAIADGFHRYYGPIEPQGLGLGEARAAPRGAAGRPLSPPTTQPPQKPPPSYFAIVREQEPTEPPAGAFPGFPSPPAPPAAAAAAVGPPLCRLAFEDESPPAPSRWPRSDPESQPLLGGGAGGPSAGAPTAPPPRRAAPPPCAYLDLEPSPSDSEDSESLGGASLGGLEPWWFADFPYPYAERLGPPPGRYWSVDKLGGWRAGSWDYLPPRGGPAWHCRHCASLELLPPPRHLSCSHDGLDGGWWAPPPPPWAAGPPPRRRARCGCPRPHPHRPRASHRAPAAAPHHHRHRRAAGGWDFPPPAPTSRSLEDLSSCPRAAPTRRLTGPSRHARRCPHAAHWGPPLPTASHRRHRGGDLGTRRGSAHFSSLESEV

Row | SMILES | immobility time ([1]; injection of NAB-14 (5/10 μM as printed)) | sucrose preference (CDM mice; NAB (5 μM as printed) injection) | EPSP amplitude after aLTD stimulation [2, 6] | basal EPSP-amplitude / synaptic transmission [2, 6] | IiLTP induced increase of EPSP amplitude ([2]; unstressed mice, NAB-14 in bathing solution, vs control IiLTP) | side effects [3] | EPSP amplitude in the absence of AP bursts [4] | IC50 [5] [nM] | immobility time ([1]; 10 mg/kg R,S-ketamine intraperitoneal, vs control) | sucrose preference (CDM mice; single R,S-ketamine injection, hydrochloride) | LTD induction [2] | paired-pulse ratio (PPR, EPSP2/EPSP1) before and after weak-aLTP (li-LTP) induction [2] | EPSP amplitude after associative LTD protocol (aLTD, NMDAR-independent) ([2]; hydrochloride) | LTD inducibility, non-associative 1 Hz LTD protocol (NMDAR-dependent) ([2]; hydrochloride) | LTP inducibility, non-associative 100 Hz LTP protocol ([2]; hydrochloride) | aLTP induction ([2]; hydrochloride) | low intensity LTP (IiLTP) induction ([2]; hydrochloride) | low intensity LTP (IiLTP), EPSP amplitude ([2]; hydrochloride) | LTP inducibility, associative LTP protocol (aLTP) ([2]; unstressed mice, hydrochloride) | LTP inducibility, associative LTP protocol (aLTP) ([2]; unstressed mice, listed as K, hydrochloride)
1 | CCN(CC)C(=O)Oc1ccc(C(=O)Nc2cccc3cc[nH]c23)cc1 [NAB-14] | significantly reduced | fully reestablished | strongly increased the EPSP amplitude; also recorded: significant increase | did not change synaptic transmission; also recorded: did not affect basal EPSP-amplitude | increased IiLTP; also recorded: enhance IiLTP induced increase of EPSP amplitude significantly | did not show side effects | neither NAB14 nor diazepam wash-in significantly altered the EPSP amplitude; also recorded: no significant pre/post changes | 580 |  |  |  |  |  |  |  |  |  |  |  | 
2 | CNC1(c2ccccc2Cl)CCCCC1=O (centres unmarked) [R,S-ketamine, R,S-Ketamine hydrochloride] |  |  |  |  |  |  |  |  | significantly reduced | renormalized; also recorded: completely reestablished | could be blocked | unchanged | unaffected; also recorded: neither R,S-ketamine (10 μM) nor S-ketamine (5 μM) had an effect | fully blocked; also recorded: abolished | significant blockade of inducibility of LTP | neither K nor SK blocked aLTP induction; also recorded: not affected | blocked LTP induction; also recorded: blockade of LTP induction | significant increase in EPSP amplitude; also recorded: even enhanced LTP induction | significant blockade of inducibility of LTP | complete inhibition of LTP
